26 compounds from patent US20100216827A1 (Metabolex, Inc., priority 2008, published 2010) can be followed below.

The assay deals with T1, human GPR120 (Homo sapiens, UniProt Q5NUL3).
T1 construct: host or cells: HEK293 cells coexpressing Gqi5
T1 sequence (Q5NUL3 1-361): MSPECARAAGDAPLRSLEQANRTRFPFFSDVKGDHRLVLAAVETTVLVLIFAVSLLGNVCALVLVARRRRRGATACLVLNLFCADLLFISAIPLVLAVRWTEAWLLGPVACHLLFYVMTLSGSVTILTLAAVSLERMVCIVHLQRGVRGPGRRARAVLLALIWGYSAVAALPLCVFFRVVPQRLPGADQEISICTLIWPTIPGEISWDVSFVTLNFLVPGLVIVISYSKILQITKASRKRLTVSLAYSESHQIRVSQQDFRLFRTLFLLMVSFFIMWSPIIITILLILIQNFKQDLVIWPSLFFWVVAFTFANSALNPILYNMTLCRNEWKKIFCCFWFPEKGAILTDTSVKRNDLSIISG
Kind of assay: Intracellular Ca2+ (FLIPR Calcium 4, Flexstation) assay in human GPR120 stable HEK293 cell line coexpressing Gqi5. It is filed as cell-based. Particulars: for % Activity at 5 μM: 5 μM compound compared to the maximal activity of GW9508 at 6.7 μM (100%); for EC50: human GPR120 stably expressing cells, 8 concentrations 0.00001 to 20 μM. As for the experimental part:
Human GPR120 stable cell line was purchased from Multispan Inc (26219 Eden Landing Road, Hayward, Calif. 94545). This GPR120 cell line was generated in HEK293 cells coexpressing Gqi5. In this cell line, the Flag epitope tag (DYKDDDDK) was fused to the amino terminus of human GPR120 protein.
The concentration of intracellular Ca^2+ was measured as described below. Human GPR120 cells were plated in 96 well plates (Poly-D-Lysine coated black/clear Plate, Greiner Bio-One) at 70,000 cells per well and cultured overnight in conditions of 37° C. and 5% CO2. A Ca^2+ assay dye stock solution was prepared by adding 10 mL of assay buffer (HBSS/20 mM HEPES, pH 7.4) to FLIPR Calcium 4 Assay Bulk Kit (Molecular Devices). The 10 mL of Ca^2+ assay dye solution was prepared by further diluting 0.5 mL of Ca^2+ assay dye stock solution with 10 mL of assay buffer. The medium of the cells was removed and immediately 100 μl of the Ca^2+ assay dye solution was dispensed into each well followed by incubation at 37° C. and 5% CO2 for 50 minutes to incorporate the Ca^2+ dye into the cells. The cell plate was then placed in the Flexstation (Molecular Devices) for 20 minutes at 37° C. Compounds were dissolved in 100% DMSO and diluted to desired concentrations with assay buffer and placed in Flexstation simultaneously with the cell plate for 20 minute incubation at 37° C. prior to reading. Fluorescence intensity was measured immediately following compound addition (25 μl/well) on the Flexstation at an excitation wavelength of 485 nm and an emission wavelength of 525 with 515 nm auto cutoff. The resulting increase in fluorescence intensities corresponds to increases in intracellular Ca^2+ levels.
Compounds were dissolved in 100% DMSO to a concentration of 20 mM to provide stock solutions. To determine activity against human GPR120, compounds were added with human GPR120 stably expressing cells (described above), at 8 desired concentrations ranging from 0.00001 to 20 μM, in 96 well plates and fluorescence intensities were measured for 90 seconds with 2-second intervals. An EC50 value (concentration of the GPR120 agonist where 50% of the agonist's maximal activity is observed) was calculated using the changes (Max-Min) of fluorescent intensity.
To determine percent activity for a tested compound, the fluorescence intensity value obtained at a particular concentration were compared to the maximal fluorescence intensity value obtained for reference compound GW9508 (4-[[(3-phenoxyphenyl)methyl]amino]benzene propanoic acid; British Journal of Pharmacology 2006 148, 619-628) that acts as a full agonist of the GPR120 receptor. The maximal activity of GW9508 is designated as 100% activity. Typically, the GW9508 activity reached a maximum at a concentration of approximately 6.7 μM. Activities of compounds that were tested according to this method are shown in Table 1 below and are expressed as % activity at 5 μM compound compared to the maximal activity of GW9508 at 6.7 μM.

Where [1] appears, read: read-out: EC50 between >1 μM and ≦10 μM.

Read-outs that look alike come from different tables or passages of the source. Bounds are passed on as bounds.

On to `CC(C)c1cc(COc2c(F)cc(CCC(=O)O)cc2F)n(-c2ccccc2)n1` [Example 1, 3-(3,5-difluoro-4-((3-isopropyl-1-phenyl-1H-pyrazol-5-yl)methoxy)phenyl)propanoic acid], for which the “% Activity at 5 μM” value was found to be 79%. For the same compound, under “read-out: EC50 ≦ 1 μM”, the EC50 was at most 1 µM.
`O=C(O)CCc1cc(F)c(OCc2snnc2-c2ccccc2)c(F)c1` [Example 2]: the “% Activity at 5 μM” value came to 77%. Moreover, under “read-out: EC50 ≦ 1 μM”, the EC50 was at most 1 µM.
For `O=C(O)CCc1cc(F)c(OCc2cncn2-c2ccccc2)c(F)c1` [Example 3, 3-(3,5-difluoro-4-((1-phenyl-1H-imidazol-5-yl)methoxy)phenyl)propanoic acid], the “% Activity at 5 μM” value worked out at 70%. Besides, the EC50 under setting [1] lay in the range of 1 to 10 µM.
The matching figures for `O=C(O)CCc1cc(F)c(OCc2cnnn2-c2ccccc2)c(F)c1` [Example 5, 3-(3,5-difluoro-4-((1-phenyl-1H-1,2,3-triazol-5-yl)methoxy)phenyl)propanoic acid]: 64% and 1 to 10 µM.
On to `O=C(O)CCc1cc(F)c(OCc2ncoc2-c2ccccc2)c(F)c1` [Example 10, 3-(3,5-difluoro-4-((5-phenyloxazol-4-yl)methoxy)phenyl)propanoic acid], for which the “% Activity at 5 μM” value is 60%. The EC50 (read-out: EC50 ≦ 1 μM) is at most 1 µM.
Take `O=C(O)CCc1cc(F)c(OCc2nccn2Cc2ccccc2)c(F)c1` [Example 11, 3-(4-((1-benzyl-1H-imidazol-2-yl)methoxy)-3,5-difluorophenyl)propanoic acid]: the “% Activity at 5 μM” value came to 75%. The EC50 under setting [1] lay in the range of 1 to 10 µM.
Regarding `Cc1cc(COc2c(F)cc(CCC(=O)O)cc2F)c(-c2ccccc2)o1` [Example 12, 3-(3,5-difluoro-4-((5-methyl-2-phenylfuran-3-yl)methoxy)phenyl)propanoic acid], the “% Activity at 5 μM” value amounted to 70%. Besides, the concentration for a half-maximal effect (EC50) under setting [1] was 1 to 10 µM.
Take `Cn1ncc(COc2c(F)cc(CCC(=O)O)cc2F)c1-c1ccccc1` [Example 13, 3-(3,5-difluoro-4-((1-methyl-5-phenyl-1H-pyrazol-4-yl)methoxy)phenyl)propanoic acid]: the “% Activity at 5 μM” value was found to be 73%. For the same compound, the EC50 under setting [1] lay in the range of 1 to 10 µM.
As to `Cc1onc(-c2ccccc2)c1COc1c(F)cc(CCC(=O)O)cc1F` [Example 14, 3-(3,5-difluoro-4-((5-methyl-3-phenylisoxazol-4-yl)methoxy)phenyl)propanoic acid], the “% Activity at 5 μM” value is given as 66%. In addition, the EC50 (read-out: EC50 ≦ 1 μM) was at most 1 µM.
The matching figures for `Cc1noc(-c2ccccc2)c1COc1c(F)cc(CCC(=O)O)cc1F` [Example 15, 3-(3,5-difluoro-4-((3-methyl-5-phenylisoxazol-4-yl)methoxy)phenyl)propanoic acid]: 72% and at most 1 µM.
The matching figures for `Cc1onc(-c2ccccc2)c1COc1c(F)cc(C2CC2C(=O)O)cc1F` (stereo not shown) [Example 16, 2-(3,5-difluoro-4-((5-methyl-3-phenylisoxazol-4-yl)methoxy)phenyl)cyclopropanecarboxylic acid]: 60% and at most 1 µM.
For the compound `Cc1onc(-c2ccc(F)cc2)c1COc1c(F)cc(C2CC2C(=O)O)cc1F` (stereo not shown) [Example 17, 2-(3,5-difluoro-4-((3-(4-fluorophenyl)-5-methylisoxazol-4-yl)methoxy)phenyl)cyclopropanecarboxylic acid], the “% Activity at 5 μM” value came out at 78%. The EC50 under setting [1] was 1 to 10 µM.
For the compound `Cc1onc(-c2ccc(F)cc2)c1COc1c(F)cc(CCC(=O)O)cc1F` [Example 18, 3-(3,5-difluoro-4-((3-(4-fluorophenyl)-5-methylisoxazol-4-yl)methoxy)phenyl)propanoic acid], the “% Activity at 5 μM” value was found to be 77%. Besides, for the setting “read-out: EC50 ≦ 1 μM”, the concentration for a half-maximal effect (EC50) is at most 1 µM.
The matching figures for `Cc1cc(-c2onc(C)c2COc2c(F)cc(CCC(=O)O)cc2F)no1` [Example 19, 3-(4-((3′,5-dimethyl-3,5′-biisoxazol-4′-yl)methoxy)-3,5-difluorophenyl)propanoic acid]: 69% and at most 1 µM.
The matching figures for `O=C(O)CCc1cc(F)c(OCc2sccc2-n2cccc2)c(F)c1` [Example 20, 3-(4-((3-(1H-pyrrol-1-yl)thiophen-2-yl)methoxy)-3,5-difluorophenyl)propanoic acid]: 88% and at most 1 µM.
Consider `COc1ccc(-c2noc(C)c2COc2c(F)cc(CCC(=O)O)cc2F)cc1` [Example 21, 3-(3,5-difluoro-4-((3-(4-methoxyphenyl)-5-methylisoxazol-4-yl)methoxy)phenyl)propanoic acid], for which the “% Activity at 5 μM” value came out at 97%. For the same compound, the EC50 (read-out: EC50 ≦ 1 μM) is at most 1 µM.
In the case of `Cc1onc(-c2c(Cl)cccc2Cl)c1COc1c(F)cc(CCC(=O)O)cc1F` [Example 22, 3-(4-((3-(2,6-dichlorophenyl)-5-methylisoxazol-4-yl)methoxy)-3,5-difluorophenyl)propanoic acid], the “% Activity at 5 μM” value amounted to 75%. Also, the EC50 under setting [1] was 1 to 10 µM.
On to `Cc1noc(C)c1COc1c(F)cc(CCC(=O)O)cc1F` [Example 23, 3-(4-((3,5-dimethylisoxazol-4-yl)methoxy)-3,5-difluorophenyl)propanoic acid], for which the “% Activity at 5 μM” value was 63%. For the same compound, the EC50 under setting [1] was in the range of 1 to 10 µM.
Turning to `Cc1onc(-c2ccc(Cl)cc2)c1COc1c(F)cc(CCC(=O)O)cc1F` [Example 24, 3-(4-((3-(4-chlorophenyl)-5-methylisoxazol-4-yl)methoxy)-3,5-difluorophenyl)propanoic acid], the “% Activity at 5 μM” value is reported as 92%. The EC50 (read-out: EC50 ≦ 1 μM) is at most 1 µM.
With `Cc1cc(COc2c(F)cc(CCC(=O)O)cc2F)n(C(C)C)n1` [Example 25, 3-(3,5-difluoro-4-((1-isopropyl-3-methyl-1H-pyrazol-5-yl)methoxy)phenyl)propanoic acid], the “% Activity at 5 μM” value came out at 92%. The concentration giving a half-maximal response (EC50) under setting [1] was in the range of 1 to 10 µM.
In the case of `Cc1onc(-c2ccccc2)c1C(=O)COc1c(F)cc(CCC(=O)O)cc1F` [Example 26, 3-(3,5-difluoro-4-(2-(5-methyl-3-phenylisoxazol-4-yl)-2-oxoethoxy)phenyl)propanoic acid], the “% Activity at 5 μM” value is 100%. The EC50 (read-out: EC50 ≦ 1 μM) is at most 1 µM.
As to `O=C(O)CCc1cc(F)c(OCc2ncsc2-c2ccccc2)c(F)c1` [Example 28, 3-(3,5-difluoro-4-((5-phenylthiazol-4-yl)methoxy)phenyl)propanoic acid], the “% Activity at 5 μM” value is listed as 87%. Further, the EC50 (read-out: EC50 ≦ 1 μM) is at most 1 µM.
Take `O=C(O)CSc1ccc(OCc2snnc2-c2ccccc2)cc1` [Example 29, 2-(4-((4-phenyl-1,2,3-thiadiazol-5-yl)methoxy)phenylthio)acetic acid]: the “% Activity at 5 μM” value came out at 85%. In addition, the EC50 under setting [1] fell in the range of 1 to 10 µM.
On to `Cc1nc(-c2ccccc2)c(COc2c(F)cc(CCC(=O)O)cc2F)s1` [Example 30], for which the “% Activity at 5 μM” value turned out to be 80%. Besides, the EC50 under setting [1] was 1 to 10 µM.
For `O=C(O)CCc1cc(F)c(OCc2snnc2-c2ccc(F)cc2)c(F)c1` [Example 31, 3-(3,5-difluoro-4-((4-(4-fluorophenyl)-1,2,3-thiadiazol-5-yl)methoxy)phenyl)propanoic acid], the “% Activity at 5 μM” value is 85%. The EC50 (read-out: EC50 ≦ 1 μM) was at most 1 µM.
Regarding `O=C(O)CCc1cc(F)c(OCc2snnc2-c2cccc(Cl)c2)c(F)c1` [Example 32, 3-(4-((4-(3-chlorophenyl)-1,2,3-thiadiazol-5-yl)methoxy)-3,5-difluorophenyl)propanoic acid], the “% Activity at 5 μM” value is 85%. For the same compound, the EC50 (read-out: EC50 ≦ 1 μM) was at most 1 µM.

Usually EC50 stands for the concentration giving half of the maximal effect.
